Experimental data from ChEMBL document CHEMBL5376003, “Structure-Activity Relationship of FL118 Platform Position 7 Versus Position 9-Derived Compounds and Their Mechanism of Action and Antitumor Activity” (J Med Chem, 2023).
Activity calls are given as the source filed them. The rule behind the calls is not given here.

Experiments:
A549 = assay: Growth inhibition of human A549 cells incubated for 48 hrs by MTT reagent based ELISA reader analysis; format: functional, cell-based; conditions: A549, 48 h
HCT-116 [1] = assay: Growth inhibition of human HCT-116 cells incubated for 48 hrs by MTT reagent based ELISA reader analysis; format: functional, cell-based; conditions: HCT-116, 48 h
PDX27454 [2] = assay: Antitumor activity against human PDX27454 cells xenografted in SCID mouse model assessed as reduction in tumor volume at 2 mg/kg,po administrated once per week for 3 weeks; format: functional, organism-based
PDX14244 [3] = assay: Antitumor activity against human PDX14244 cells xenografted in SCID mouse model assessed as reduction in tumor volume at 2 mg/kg,po administrated once per week for 3 weeks; format: functional, organism-based
MCF7 = assay: Growth inhibition of human MCF7 cells incubated for 48 hrs by MTT reagent based ELISA reader analysis; format: functional, cell-based; conditions: MCF7, 48 h
HeLa = assay: Growth inhibition of human HeLa cells incubated for 48 hrs by MTT reagent based ELISA reader analysis; format: functional, cell-based
PDX27454 [4] = assay: Antitumor activity against human PDX27454 cells xenografted in SCID mouse model assessed as reduction in tumor volume at 8 mg/kg,po administrated once per week for 3 weeks; format: functional, organism-based
HepG2 = assay: Growth inhibition of human HepG2 cells incubated for 48 hrs by MTT reagent based ELISA reader analysis; format: functional, cell-based; conditions: HepG2, 48 h
PDX14244 [5] = assay: Antitumor activity against human PDX14244 cells xenografted in SCID mouse model assessed as reduction in tumor volume at 8 mg/kg,po administrated once per week for 3 weeks; format: functional, organism-based
HCT-116 [6] = assay: Induction of apoptosis in human HCT-116 cells assessed as increase in intracellular ROS level incubated for 48 hrs by DCFH-DA staining based fluorescence microscopy; format: functional, cell-based
HCT-116 [7] = assay: Inhibition of cell migration in human HCT-116 cells assessed as intercellular distance at 5 nM incubated for 24 hrs by inverted phase-contrast microscopic analysis (reference value: 1 +/- 0.2 millimeter); format: functional
HCT-116 [8] = assay: Induction of cell cycle arrest in human HCT-116 cells assessed as accumulation of cells at S phase at 2.5 to 10 nM incubated for 48 hrs by Annexin V-FITC/PI staining based flow cytometry assay; format: functional; conditions: dose 2.5-10 nM
HCT-116 [9] = assay: Induction of cell cycle arrest in human HCT-116 cells assessed as accumulation of cells at G2/M phase at 2.5 to 10 nM incubated for 48 hrs by Annexin V-FITC/PI staining based flow cytometry assay; format: functional; conditions: dose 2.5-10 nM
HCT-116 [10] = assay: Induction of apoptosis in human HCT-116 cells assessed as increase in intracellular ROS level at 10 to 1000 nM incubated for 12 hrs by DCFH-DA staining based fluorescence microscopy; format: functional, cell-based; conditions: dose 10-1000 nM
HCT-116 [11] = assay: Induction of apoptosis in human HCT-116 cells assessed as increase in intracellular ROS level at 10 to 1000 nM incubated for 4 to 8 hrs by DCFH-DA staining based fluorescence microscopy; format: functional, cell-based; conditions: dose 10-1000 nM, time 4-8 hrs
[12] = biological target: T1, DNA topoisomerase 1 (Homo sapiens) (UniProt P11387); assay: Inhibition of topoisomerase 1 (unknown origin) assessed as relaxation of supercoiled plasmid pBR322 DNA at 25 to 100 uM incubated for 30 mins by ethidium bromide staining based agarose gel electrophoresis; conditions: dose 25-100 µM
T1 sequence (whole entry): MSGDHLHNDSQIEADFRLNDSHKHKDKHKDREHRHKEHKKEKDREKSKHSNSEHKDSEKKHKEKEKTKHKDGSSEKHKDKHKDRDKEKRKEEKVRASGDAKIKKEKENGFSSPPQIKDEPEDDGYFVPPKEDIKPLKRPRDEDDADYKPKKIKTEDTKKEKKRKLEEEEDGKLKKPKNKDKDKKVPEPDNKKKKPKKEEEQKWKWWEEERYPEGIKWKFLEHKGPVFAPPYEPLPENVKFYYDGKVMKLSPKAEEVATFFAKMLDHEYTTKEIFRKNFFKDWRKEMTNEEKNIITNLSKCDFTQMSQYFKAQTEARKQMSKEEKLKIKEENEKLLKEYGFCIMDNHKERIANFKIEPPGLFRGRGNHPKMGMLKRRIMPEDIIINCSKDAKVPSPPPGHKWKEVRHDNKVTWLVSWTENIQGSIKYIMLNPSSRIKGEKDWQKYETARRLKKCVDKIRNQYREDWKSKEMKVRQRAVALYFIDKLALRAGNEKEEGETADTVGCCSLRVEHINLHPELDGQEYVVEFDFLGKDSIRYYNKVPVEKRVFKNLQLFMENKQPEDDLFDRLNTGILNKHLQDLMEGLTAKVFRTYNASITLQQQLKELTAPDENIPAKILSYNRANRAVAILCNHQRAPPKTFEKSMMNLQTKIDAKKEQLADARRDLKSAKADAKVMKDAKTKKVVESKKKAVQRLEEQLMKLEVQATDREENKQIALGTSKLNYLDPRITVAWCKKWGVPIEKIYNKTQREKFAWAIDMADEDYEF

HCT-116 [13] = assay: Induction of apoptosis in human HCT-116 cells at 2.5 to 10 nM incubated for 48 hrs by Annexin V-FITC/PI staining based flow cytometry assay; format: functional, cell-based; conditions: dose 2.5-10 nM
HCT-116 [14] = assay: Induction of apoptosis in human HCT-116 cells assessed as downregulation of Survivin protein expression incubated for 48 hrs by Western blotting analysis; format: functional, cell-based
HCT-116 [15] = assay: Induction of apoptosis in human HCT-116 cells assessed as downregulation of MCL-1 protein expression incubated for 48 hrs by Western blotting analysis; format: functional, cell-based
HCT-116 [16] = assay: Inhibition of cell migration in human HCT-116 cells assessed as scratch repair rate at 5 nM incubated for 48 hrs by inverted phase-contrast microscopic analysis; format: functional; set-up: scale not given: the % may be the effect or the level left
HCT-116 [17] = assay: Inhibition of cell migration in human HCT-116 cells assessed as intercellular distance at 5 nM by inverted phase-contrast microscopic analysis (reference value: 2.5 +/- 0.7 millimeter); format: functional
HCT-116 [18] = assay: Induction of apoptosis in human HCT-116 cells assessed as downregulation of XIAP protein expression incubated for 48 hrs by Western blotting analysis; format: functional, cell-based
HCT-116 [19] = assay: Inhibition of cell migration in human HCT-116 cells assessed as intercellular distance at 5 nM incubated for 48 hrs by inverted phase-contrast microscopic analysis; format: functional

SMILES | IC50 (A549) | IC50 (HCT-116 [1]) | Activity (PDX27454 [2]) | Activity (PDX14244 [3]) | IC50 (MCF7) | IC50 (HeLa) | Activity (PDX27454 [4]) | IC50 (HepG2) | Activity (PDX14244 [5]) | Activity (HCT-116 [6]) | other results
CC[C@@]1(O)C(=O)OCc2c1cc1n(c2=O)Cc2cc3c(-c4ccc([Si](C)(C)C)cc4)c4c(cc3nc2-1)OCO4 | 85.8 nM | 253 nM | Active | Active | 104 nM | 160 nM | Active | 176 nM | Active | Dose-Dependent Effect | 
CC[C@@]1(O)C(=O)OCc2c1cc1n(c2=O)Cc2c-1nc1cc3c(cc1c2-c1ccc(C(F)(F)F)cc1)OCO3 | 78.9 nM | 40.8 nM | Active | Active | 47.1 nM | 49.5 nM | Active | 86.6 nM | Active | Dose-Dependent Effect | Activity (HCT-116 [7]): 1.5 mm; Activity (HCT-116 [8]): Active; Activity (HCT-116 [9]): Active; Activity (HCT-116 [10]): Active; Activity (HCT-116 [11]): Active; Topoisomerase 1 inhibition [12]: Active; Activity (HCT-116 [13]): Active; Activity (HCT-116 [14]): Active; Activity (HCT-116 [15]): Active; Activity (HCT-116 [16]): 69.2%; Activity (HCT-116 [17]): 2.6 mm; Activity (HCT-116 [18]): Active; Activity (HCT-116 [19]): 0.8 mm
CC[C@@]1(O)C(=O)OCc2c1cc1n(c2=O)Cc2cc3c(-c4ccc(OC(C)C)cc4)c4c(cc3nc2-1)OCO4 | 142 nM | 948 nM | Active | Active | 600 nM | 152 nM | Active | 910 nM | Active | Dose-Dependent Effect | 
CC[C@@]1(O)C(=O)OCc2c1cc1n(c2=O)Cc2cc3c(-c4cccc(C)c4)c4c(cc3nc2-1)OCO4 | > 1000 nM | 478 nM | Active | Active | 132 nM | 32.6 nM | Active | 200 nM | Active |  | 
